From ChEMBL document CHEMBL4219215, “Discovery of {4-[4,9-bis(ethyloxy)-1-oxo-1,3-dihydro-2H-benzo[f]isoindol-2-yl]-2-fluorophenyl}acetic acid (GSK726701A), a novel EP4 receptor partial agonist for the treatment of pain” (Bioorg Med Chem Lett, 2018)

What was measured:
[1] = target: Prostaglandin E2 receptor EP4 subtype (Homo sapiens, UniProt P35408); experiment: Partial agonist activity at EP4 receptor in human whole blood assessed as inhibition of LPS-induced TNFalpha production; assay type: functional
Sequence of Prostaglandin E2 receptor EP4 subtype (P35408 whole entry): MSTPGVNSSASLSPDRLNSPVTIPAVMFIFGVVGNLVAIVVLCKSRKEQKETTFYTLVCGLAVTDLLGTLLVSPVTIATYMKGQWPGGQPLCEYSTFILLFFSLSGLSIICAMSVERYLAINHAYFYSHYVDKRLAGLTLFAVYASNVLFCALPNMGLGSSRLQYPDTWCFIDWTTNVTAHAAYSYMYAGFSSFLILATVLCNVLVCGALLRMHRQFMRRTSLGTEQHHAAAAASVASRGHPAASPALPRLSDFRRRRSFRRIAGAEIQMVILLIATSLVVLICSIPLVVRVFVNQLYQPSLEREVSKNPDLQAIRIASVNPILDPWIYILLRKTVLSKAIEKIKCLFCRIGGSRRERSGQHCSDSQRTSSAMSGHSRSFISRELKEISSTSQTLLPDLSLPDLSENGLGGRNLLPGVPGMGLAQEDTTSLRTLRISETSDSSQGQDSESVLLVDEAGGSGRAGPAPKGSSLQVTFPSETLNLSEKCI

[2] = Oral bioavailability in rat at 1 mg/kg; assay type: ADME, organism-based; settings: in vivo
Rattus norvegicus = experiment: Potency index, ratio of ED50 for CCI17474 to ED50 for test compound for analgesic activity in orally dosed rat model of Freund's complete adjuvant-induced acute inflammatory pain assessed as reversal of FCA-induced hypersensitivity; assay type: functional
Homo sapiens [3] = organism: Homo sapiens; experiment: Selectivity index, ratio of pIC50 for DP1 receptor (unknown origin) to pEC50 for partial agonist activity at human EP4 receptor expressed in HEK293-AEQ17 cells; assay type: cell-based
Canis familiaris = experiment: Blood clearance in orally dosed dog; assay type: ADME, organism-based, Canis lupus familiaris; settings: in vivo, po
Cytochrome P450 3A4 = Cytochrome P450 3A4 (Homo sapiens, UniProt P08684); experiment: Inhibition of human recombinant CYP3A4 using 7BQ substrate; assay type: ADME; settings: human, recombinant enzyme
Sequence of Cytochrome P450 3A4 (P08684 whole entry): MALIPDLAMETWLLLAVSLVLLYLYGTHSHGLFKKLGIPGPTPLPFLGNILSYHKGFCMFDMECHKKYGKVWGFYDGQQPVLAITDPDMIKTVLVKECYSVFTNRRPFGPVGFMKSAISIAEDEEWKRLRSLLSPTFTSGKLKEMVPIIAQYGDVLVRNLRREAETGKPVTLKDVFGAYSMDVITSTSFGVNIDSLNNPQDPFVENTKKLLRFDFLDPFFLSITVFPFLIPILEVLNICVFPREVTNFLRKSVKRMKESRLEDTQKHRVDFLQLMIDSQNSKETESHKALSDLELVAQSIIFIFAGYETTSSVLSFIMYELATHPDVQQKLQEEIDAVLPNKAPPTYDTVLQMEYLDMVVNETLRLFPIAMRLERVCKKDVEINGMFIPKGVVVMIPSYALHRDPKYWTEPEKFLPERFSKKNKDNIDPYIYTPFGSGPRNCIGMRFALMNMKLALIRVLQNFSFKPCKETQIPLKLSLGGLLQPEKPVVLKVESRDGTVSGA

[4] = Protein binding in human plasma; assay type: ADME, cell-free; settings: read-out: PPB
Homo sapiens [5] = organism: Homo sapiens; experiment: Selectivity index, ratio of pIC50 for EP1 receptor (unknown origin) to pEC50 for partial agonist activity at human EP4 receptor expressed in HEK293-AEQ17 cells; assay type: cell-based
[6] = Intrinsic clearance in human liver microsomes; assay type: ADME, microsome
[7] = target: T1, Prostaglandin E2 receptor EP3 subtype (Homo sapiens, UniProt P43115); experiment: Activity at EP3 receptor (unknown origin)
T1 sequence (P43115 whole entry): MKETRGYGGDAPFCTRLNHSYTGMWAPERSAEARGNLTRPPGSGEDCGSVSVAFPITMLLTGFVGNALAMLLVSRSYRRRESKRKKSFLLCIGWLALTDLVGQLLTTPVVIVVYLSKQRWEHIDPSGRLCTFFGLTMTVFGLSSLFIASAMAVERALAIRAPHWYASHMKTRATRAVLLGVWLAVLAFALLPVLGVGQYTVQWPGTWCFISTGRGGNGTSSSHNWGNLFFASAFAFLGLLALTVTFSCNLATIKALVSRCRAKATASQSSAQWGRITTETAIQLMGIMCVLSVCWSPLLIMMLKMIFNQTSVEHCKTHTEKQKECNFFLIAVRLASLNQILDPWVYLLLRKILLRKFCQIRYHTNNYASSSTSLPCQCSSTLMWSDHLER

[8] = target: T2, Prostaglandin E2 receptor EP1 subtype (Homo sapiens, UniProt P34995); experiment: Activity at EP1 receptor (unknown origin)
T2 sequence (P34995 whole entry): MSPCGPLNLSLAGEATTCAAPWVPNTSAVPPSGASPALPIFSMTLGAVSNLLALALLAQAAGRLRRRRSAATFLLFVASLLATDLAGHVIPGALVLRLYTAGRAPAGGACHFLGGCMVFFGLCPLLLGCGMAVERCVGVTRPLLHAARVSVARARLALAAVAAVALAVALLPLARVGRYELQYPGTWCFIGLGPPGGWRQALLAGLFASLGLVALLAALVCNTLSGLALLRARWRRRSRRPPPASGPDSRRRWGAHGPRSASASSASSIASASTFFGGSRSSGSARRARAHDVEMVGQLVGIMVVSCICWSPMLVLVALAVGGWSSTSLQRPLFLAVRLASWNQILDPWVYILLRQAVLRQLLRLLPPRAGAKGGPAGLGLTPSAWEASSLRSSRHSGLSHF

Homo sapiens [9] = organism: Homo sapiens; experiment: Selectivity index, ratio of pIC50 for FP receptor (unknown origin) to pEC50 for partial agonist activity at human EP4 receptor expressed in HEK293-AEQ17 cells; assay type: cell-based

SMILES: CCOc1c2c(c(OCC)c3ccccc13)C(=O)N(c1ccc(CC(=O)O)c(F)c1)C2
- EC50 [1]: 0.00631 µM
- bioavailability [2]: 112%
- Ratio ED50 (Rattus norvegicus): >10
- Selectivity ratio (Homo sapiens [3]): > 100
- clearance (Canis familiaris): 4 mL/min/kg
- INH (Cytochrome P450 3A4): > 100 µM
- fraction unbound [4]: 0.001
- Selectivity ratio (Homo sapiens [5]): > 100
- CLH [6]: < 1 mL/min/g
- IC50 [7]: > 10 µM
- IC50 [8]: > 10 µM
- Selectivity ratio (Homo sapiens [9]): > 100
